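Results reflect a 48-hour exposure of cells in 96-well plates to compound at five concentrations. Abbreviation: GI50, concentration required for 50% inhibition of growth. At the TGI there is no net growth.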
Assays:
Experiment in all cases: NCI tumour cell line growth inhibition, 48 h
[1] = test system: HOP-18 NSCLC
[2] = test system: LXFL 529 NSCLC
[3] = test system: KM20L2 colon
[4] = test system: SNB-78 CNS
[5] = test system: DMS 273 small cell lung
[6] = test system: XF 498 CNS
[7] = test system: M19-MEL melanoma
[8] = test system: RXF-631 renal
[9] = test system: MDA-N

Row | SMILES | TGI [1] [µM] | TGI [2] [µM] | TGI [3] [µM] | TGI [4] [µM] | TGI [5] [µM] | TGI [6] [µM] | TGI [7] [µM] | TGI [8] [µM] | TGI [9] [µM] | GI50 [9] [µM]
1 | CC(C)N(C(=O)C12C3C4C5C3C1(C#N)C5C42)C(C)C (stereo not given) | > 100 | > 100 | > 100 | > 100 | > 100 | > 100 | > 100 |  |  | 
2 | CCN1C(=O)C(N=[N+]=[N-])(c2ccccc2)C(=O)c2ccccc21 (stereo not given) | > 100 | > 100 | > 100 | > 100 | > 100 | 33 | > 100 |  |  | 
3 | O=C1C2C3CCC(C2C(=O)N1CO)C1C2C(=O)N(CO)C(=O)C2C31 (stereo not given) | 34.2 | > 100 | > 79.8 | > 100 | > 58.1 | > 100 | > 100 |  |  | 
4 | Cc1ccc(S(=O)(=O)NC(=O)C#CCOC2CCCCO2)cc1 (stereo not given) | > 100 | > 100 | > 100 |  | > 100 | > 100 | > 100 | > 100 |  | 
5 | CCOC(=O)/C(=C/c1ccc(Cl)cc1)N(CC)CC | > 100 | > 100 |  | > 100 |  | > 100 | > 100 |  |  | 
6 | COc1ccc(NC(=O)CC(=O)n2nc(-c3ccccc3)c(N=Nc3ccccc3C)c2-c2ccccc2)cc1 | > 100 | > 100 | > 100 |  | 41.2 | 33.3 | > 100 | > 100 | > 100 | 
7 | O=c1nc(-c2ccccc2)scc1-c1ccccc1 | > 100 | > 100 | > 100 |  |  | > 100 | > 100 | > 100 |  | 
8 | COc1cccc(N2C(=O)[C@H]3[C@H]4CC(C(C)(C)C)CC[C@H]4c4c([nH]c5ccccc45)[C@H]3C2=O)c1 (stereo not given in full) |  | 42.3 |  | 35.3 | 36.8 |  | 44.1 | 33.2 |  | 
9 | Cc1cc2c(=O)c3ccccc3oc2c(C#N)c1C |  |  |  |  |  |  |  |  | > 100 | 
10 | CO[C@]12CCC(=O)N1C=Cc1c2[nH]c2ccccc12 | > 100 | > 100 |  | > 100 |  |  | > 100 |  |  | 
11 | O=C(CC(=O)c1cccc([N+](=O)[O-])c1)C(=O)Nc1nc([N+](=O)[O-])cs1 | > 100 | > 100 | > 100 | > 100 | > 100 |  | > 100 | > 100 |  | 
12 | NC(=O)OCC(COc1ccc(Cl)cc1)OC(=O)c1cc([N+](=O)[O-])cc([N+](=O)[O-])c1 (stereo not given) | > 100 | > 100 | > 100 | > 100 | > 100 | > 100 |  | > 100 |  | 
13 | CN1CCc2cc(O)c3cc2C1Cc1ccc(cc1)Oc1cc(ccc1O)CC1c2c(cc4c(c2O3)OCO4)CCN1C (stereo not given) |  |  | 45.9 | > 100 | 86.2 | 29.2 |  |  |  | 
14 | CCCC(=O)Nc1ncnc2c1ncn2C1OC2COP(=O)(O)OC2C1OC(=O)CCC (stereo not given) |  |  |  |  |  |  |  |  | > 1000 | > 1000
15 | CC(=O)OCc1c(C)c2ccccc2n1C(C)=O | > 100 |  | > 100 |  | 59.9 | 84.6 | > 100 | 66.9 |  | 
16 | O=C(NCCCCCCNC(=O)NC1OCC(O)C(O)C1O)NC1OCC(O)C(O)C1O (stereo not given) |  | > 100 |  | > 100 |  |  | > 100 |  |  | 
17 | CSC1CC2C(CC1(C)SC)C2(C)C (stereo not given) |  | > 100 |  | > 100 | > 100 | 50.8 | > 100 |  |  | 
18 | Cc1ccc2nc(CC(=O)c3ccc4ccccc4c3)c(=O)[nH]c2c1 |  |  |  |  |  |  |  |  | > 100 | 
19 | C/C=C(\C)C(=O)OC1C2C(C)C(=O)OC2C(O)C(C)C2C=CC(=O)C21C (stereo not given) |  |  |  |  |  |  |  |  | 22.8 | 
20 | NCC(=O)NC(CO)C(=O)O (stereo not given) |  |  |  |  |  |  |  |  | > 100 | 
21 | Nc1nc(Cl)nc2c1ncn2C1CCC(COP(=O)(O)OP(=O)(O)OP(=O)(O)O)O1 (stereo not given) |  |  |  |  |  |  |  |  | > 100 | 
22 | COc1cc2c(cc1OC)C1(c3ccccc3)ON=C(c3ccccc3)N1CS2 (stereo not given) | > 100 | > 100 | > 100 | > 100 | > 100 | > 100 | > 100 | > 100 |  | 
23 | CC1=C2[C@@H](c3ccccc3)C3C=CC2(c2ccccc23)N(C(=O)Nc2cccc3ccccc23)C1=O (stereo not given in full) | > 100 | > 100 | > 100 | > 100 | > 100 | > 100 |  |  |  | 
24 | CS(=O)(=O)N(CC(=O)O)Cc1ccccc1 |  |  |  |  |  |  |  |  | > 100 | 
